Source: patent US20200199127A1, “(HETERO)ARYLALKYLAMINO-PYRAZOLOPYRIDAZINE DERIVATIVES HAVING MULTIMODAL ACTIVITY AGAINST PAIN” (priority 2017, published 2020)

What was measured:
[1] = target: Human norepinephrine transporter (NET) (Homo sapiens, UniProt P23975); assay: Binding assay to human norepinephrine transporter (NET), [3H]-Nisoxetin; conditions: human NET enriched membranes, 5 nM [3H]-Nisoxetin; Ki as class symbol
Experimental: Binding Assay to Human Norepinephrine Transporter (NET).
Human norepinephrine transporter (NET) enriched membranes (5 μg) were incubated with 5 nM of radiolabeled [3H]-Nisoxetin in assay buffer containing 50 mM Tris-HCl, 120 mM NaCl, 5 mM KCl, pH 7.4.
NSB (non specific binding) was measured by adding 10 μM of desipramine. The binding of the test compound was measured at five different concentrations.. After 60 min incubation at 4° C., binding reaction was terminated by filtering through Multiscreen GF/C (Millipore) presoaked in 0.5% polyethyleneimine in Vacuum Manifold Station, followed by 3 washes with ice-cold filtration buffer containing 50 mM Tris-HCl, 0.9% NaCl, pH 7.4.
Filter plates were dried at 60° C. for 1 hour and 30 μl of scintillation cocktail were added to each well before radioactivity reading.

[2] = target: Human α2δ-1 subunit of Cav2.2 calcium channel (Homo sapiens, UniProt P54289); assay: Human α2δ-1 subunit of Cav2.2 calcium channel assay, [3H]-Gabapentin binding; conditions: human α2δ-1 enriched membranes, 15 nM [3H]-Gabapentin; Ki as class symbol
Human α2δ-1 subunit of Cav2.2 calcium channel, sequence (P54289 25-1103): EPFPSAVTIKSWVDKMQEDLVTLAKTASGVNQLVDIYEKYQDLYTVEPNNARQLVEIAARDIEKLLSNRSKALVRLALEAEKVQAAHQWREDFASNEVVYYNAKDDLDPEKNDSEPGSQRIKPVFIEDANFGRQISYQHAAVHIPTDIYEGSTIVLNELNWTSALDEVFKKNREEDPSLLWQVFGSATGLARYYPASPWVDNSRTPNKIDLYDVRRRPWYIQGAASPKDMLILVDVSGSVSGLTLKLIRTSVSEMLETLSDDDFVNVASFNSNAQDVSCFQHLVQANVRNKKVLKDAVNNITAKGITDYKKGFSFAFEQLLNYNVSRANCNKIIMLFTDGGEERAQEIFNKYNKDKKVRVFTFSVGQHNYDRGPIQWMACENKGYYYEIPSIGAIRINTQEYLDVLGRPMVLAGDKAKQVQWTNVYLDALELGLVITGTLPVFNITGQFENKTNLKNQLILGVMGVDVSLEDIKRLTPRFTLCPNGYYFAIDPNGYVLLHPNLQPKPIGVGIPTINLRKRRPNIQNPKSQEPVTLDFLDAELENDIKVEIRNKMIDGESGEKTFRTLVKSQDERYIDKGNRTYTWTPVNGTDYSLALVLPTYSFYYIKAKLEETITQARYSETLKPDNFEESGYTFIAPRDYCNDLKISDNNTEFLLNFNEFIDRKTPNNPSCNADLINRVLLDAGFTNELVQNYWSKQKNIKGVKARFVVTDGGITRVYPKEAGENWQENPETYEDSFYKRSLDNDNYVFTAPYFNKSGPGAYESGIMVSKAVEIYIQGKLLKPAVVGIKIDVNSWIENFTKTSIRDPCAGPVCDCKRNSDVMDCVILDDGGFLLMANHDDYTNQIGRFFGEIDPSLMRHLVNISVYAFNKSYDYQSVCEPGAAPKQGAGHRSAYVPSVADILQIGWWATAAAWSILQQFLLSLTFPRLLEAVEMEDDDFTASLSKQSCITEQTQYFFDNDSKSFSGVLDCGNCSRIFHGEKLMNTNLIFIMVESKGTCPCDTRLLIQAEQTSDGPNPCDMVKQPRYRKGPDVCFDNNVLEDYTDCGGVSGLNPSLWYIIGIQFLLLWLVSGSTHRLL
Experimental: Human α2δ-1 Subunit of Cav2.2 Calcium Channel Assay
Human α2δ-1 enriched membranes (2.5 μg) were incubated with 15 nM of radiolabeled [3H]-Gabapentin in assay buffer containing Hepes-KOH 10 mM, pH 7.4. NSB (non specific binding) was measured by adding 10 μM pregabalin. The binding of the test compound was measured at five different concentrations. After 60 min incubation at 27° C., binding reaction was terminated by filtering through Multiscreen GF/C (Millipore) presoaked in 0.5% polyethyleneimine in Vacuum Manifold Station, followed by 3 washes with ice-cold filtration buffer containing 50 mM Tris-HCl, pH 7.4. Filter plates were dried at 60° C. for 1 hour and 30 μl of scintillation cocktail were added to each well before radioactivity reading. Readings were performed in a Trilux 1450 Microbeta radioactive counter (Perkin Elmer).

Human norepinephrine transporter (NET), sequence (P23975 whole entry): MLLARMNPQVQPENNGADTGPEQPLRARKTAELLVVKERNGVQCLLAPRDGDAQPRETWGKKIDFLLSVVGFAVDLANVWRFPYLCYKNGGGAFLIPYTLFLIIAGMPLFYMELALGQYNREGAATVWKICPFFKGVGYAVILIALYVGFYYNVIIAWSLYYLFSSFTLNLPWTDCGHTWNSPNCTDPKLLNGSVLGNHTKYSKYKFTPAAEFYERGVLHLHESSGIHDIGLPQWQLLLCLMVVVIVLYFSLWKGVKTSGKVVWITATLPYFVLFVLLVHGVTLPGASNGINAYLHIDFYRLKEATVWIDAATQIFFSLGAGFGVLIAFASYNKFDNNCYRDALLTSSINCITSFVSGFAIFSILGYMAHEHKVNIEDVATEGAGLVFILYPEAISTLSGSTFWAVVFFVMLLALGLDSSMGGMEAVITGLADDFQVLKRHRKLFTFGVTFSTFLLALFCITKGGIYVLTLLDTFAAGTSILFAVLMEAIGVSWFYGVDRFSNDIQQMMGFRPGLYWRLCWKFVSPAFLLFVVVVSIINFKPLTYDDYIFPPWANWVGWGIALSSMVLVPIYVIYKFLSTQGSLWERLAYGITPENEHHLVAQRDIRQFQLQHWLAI

SMILES	Ki [1] [µM]	Ki [2] [µM]
COc1ccc(-n2nc3c(N(C)Cc4ccccn4)nnc(C)c3c2C)cc1 [Example 48, 2-(4-methoxyphenyl)-N,3,4-trimethyl-N-(pyridin-2-ylmethyl)-2H-pyrazolo[3,4-d]pyridazin-7-amine]	> 1	0.5 to 5
CCOc1ccc(-n2nc3c(N(CCO)Cc4ccccn4)nnc(C)c3c2C)c(F)c1 [Example 56, 2-((2-(4-ethoxy-2-fluorophenyl)-3,4-dimethyl-2H-pyrazolo[3,4-d]pyridazin-7-yl)(pyridin-2-ylmethyl)amino)ethanol]	0.5 to 1	0.5 to 5
CCOc1ccc(-n2nc3c(NCc4ccccc4CO)nnc(C)c3c2C)c(F)c1 [Example 37, (2-(((2-(4-ethoxy-2-fluorophenyl)-3,4-dimethyl-2H-pyrazolo[3,4-d]pyridazin-7-yl)amino)methyl)phenyl)methanol]	> 1	0.1 to 0.5
CCOc1ccc(-n2nc3c(N(C)Cc4ccc(O)cc4)nnc(C)c3c2C)c(F)c1 [Example 18, 4-(((2-(4-ethoxy-2-fluorophenyl)-3,4-dimethyl-2H-pyrazolo[3,4-d]pyridazin-7-yl)(methyl)amino)methyl)phenol]	< 0.1	
CCOc1ccc(-n2nc3c(N(C)Cc4ccncc4)nnc(C)c3c2C)c(F)c1 [Example 11, 2-(4-ethoxy-2-fluorophenyl)-N,3,4-trimethyl-N-(pyridin-4-ylmethyl)-2H-pyrazolo[3,4-d]pyridazin-7-amine]	> 1	0.1 to 0.5
CCOc1ccc(-n2nc3c(N(C)Cc4cccc(OC)n4)nnc(C)c3c2C)c(F)c1 [Example 30, 2-(4-ethoxy-2-fluorophenyl)-N-((6-methoxypyridin-2-yl)methyl)-N,3,4-trimethyl-2H-pyrazolo[3,4-d]pyridazin-7-amine]	0.5 to 1	0.1 to 0.5
CCOc1ccc(-n2nc3c(N(C)Cc4ncccc4C)nnc(C)c3c2C)c(F)c1 [Example 32, 2-(4-ethoxy-2-fluorophenyl)-N,3,4-trimethyl-N-((3-methylpyridin-2-yl)methyl)-2H-pyrazolo[3,4-d]pyridazin-7-amine]	0.1 to 0.5	0.1 to 0.5
CCOc1ccc(-n2nc3c(N(C)Cc4ncc[nH]4)nnc(C)c3c2C)c(F)c1 [Example 25, N-((1H-imidazol-2-yl)methyl)-2-(4-ethoxy-2-fluorophenyl)-N,3,4-trimethyl-2H-pyrazolo[3,4-d]pyridazin-7-amine]	> 1	0.5 to 5
CCOc1ccc(-n2nc3c(N(C)Cc4cscn4)nnc(C)c3c2C)c(F)c1 [Example 29, 2-(4-ethoxy-2-fluorophenyl)-N,3,4-trimethyl-N-(thiazol-4-ylmethyl)-2H-pyrazolo[3,4-d]pyridazin-7-amine]	> 1	0.1 to 0.5
CCOc1ccc(-n2nc3c(N(C)CCc4ccccc4)nnc(C)c3c2C)c(F)c1 [Example 3, 2-(4-ethoxy-2-fluorophenyl)-N,3,4-trimethyl-N-phenethyl-2H-pyrazolo[3,4-d]pyridazin-7-amine]	0.1 to 0.5	0.1 to 0.5
CCOc1ccc(-n2nc3c(N(C)Cc4ncccn4)nnc(C)c3c2C)c(F)c1 [Example 26, 2-(4-ethoxy-2-fluorophenyl)-N,3,4-trimethyl-N-(pyrimidin-2-ylmethyl)-2H-pyrazolo[3,4-d]pyridazin-7-amine]	> 1	0.1 to 0.5
CCOc1ccc(-n2nc3c(N(C)Cc4ccccc4CNC)nnc(C)c3c2C)c(F)c1 [Example 43, 2-(4-ethoxy-2-fluorophenyl)-N,3,4-trimethyl-N-(2-((methylamino)methyl)benzyl)-2H-pyrazolo[3,4-d]pyridazin-7-amine]	0.1 to 0.5	0.5 to 5
COc1ccc(-n2nc3c(N(C)Cc4ccccn4)nnc(C)c3c2C)c(F)c1 [Example 45, 2-(2-fluoro-4-methoxyphenyl)-N,3,4-trimethyl-N-(pyridin-2-ylmethyl)-2H-pyrazolo[3,4-d]pyridazin-7-amine]	> 1	≥ 5
CCOc1ccc(-n2nc3c(NCC[C@H](O)c4ccccc4)nnc(C)c3c2C)c(F)c1 [Example 52, (S)-3-((2-(4-ethoxy-2-fluorophenyl)-3,4-dimethyl-2H-pyrazolo[3,4-d]pyridazin-7-yl)amino)-1-phenylpropan-1-ol]	0.1 to 0.5	
CCOc1ccc(-n2nc3c(N(C)CC[C@H](O)c4ccccc4)nnc(C)c3c2C)c(F)c1 [Example 49, (S)-3-((2-(4-Ethoxy-2-fluorophenyl)-3,4-dimethyl-2H-pyrazolo[3,4-d]pyridazin-7-yl)(methyl)amino)-1-phenylpropan-1-ol]	< 0.1	
CCOc1ccc(-n2nc3c(NCCC(O)c4ccccc4)nnc(C)c3c2C)c(F)c1 (stereo not shown) [Example 7, 3-((2-(4-ethoxy-2-fluorophenyl)-3,4-dimethyl-2H-pyrazolo[3,4-d]pyridazin-7-yl)amino)-1-phenylpropan-1-ol]	0.1 to 0.5	0.1 to 0.5
CCOc1ccc(-n2nc3c(N(CC)Cc4ccccn4)nnc(C)c3c2C)c(F)c1 [Example 40, 2-(4-ethoxy-2-fluorophenyl)-N-ethyl-3,4-dimethyl-N-(pyridin-2-ylmethyl)-2H-pyrazolo[3,4-d]pyridazin-7-amine]	0.1 to 0.5	0.5 to 5
CCOc1ccc(-n2nc3c(NCC[C@@H](O)c4ccccc4)nnc(C)c3c2C)c(F)c1 [Example 51, (R)-3-((2-(4-Ethoxy-2-fluorophenyl)-3,4-dimethyl-2H-pyrazolo[3,4-d]pyridazin-7-yl)amino)-1-phenylpropan-1-ol]	> 1	
CCOc1ccc(-n2nc3c(N(C)Cc4ccccn4)nnc(C)c3c2C)c(F)c1 [Example 9, 2-(4-ethoxy-2-fluorophenyl)-N,3,4-trimethyl-N-(pyridin-2-ylmethyl)-2H-pyrazolo[3,4-d]pyridazin-7-amine]	0.5 to 1	0.1 to 0.5
CCOc1ccc(-n2nc3c(N(C)C(CCO)c4ccccc4)nnc(C)c3c2C)c(F)c1 (stereo not shown) [Example 54, 3-((2-(4-ethoxy-2-fluorophenyl)-3,4-dimethyl-2H-pyrazolo[3,4-d]pyridazin-7-yl)(methyl)amino)-3-phenylpropan-1-ol]	> 1	0.5 to 5
CCOc1ccc(-n2nc3c(N(C)CCC(O)c4ccccc4)nnc(C)c3c2C)c(F)c1 (stereo not shown) [Example 2, 3-((2-(4-ethoxy-2-fluorophenyl)-3,4-dimethyl-2H-pyrazolo[3,4-d]pyridazin-7-yl)(methyl)amino)-1-phenylpropan-1-ol]	< 0.1	
CCOc1ccc(-n2nc3c(N(C)Cc4ccc(OC)cn4)nnc(C)c3c2C)c(F)c1 [Example 38, 2-(4-ethoxy-2-fluorophenyl)-N-((5-methoxypyridin-2-yl)methyl)-N,3,4-trimethyl-2H-pyrazolo[3,4-d]pyridazin-7-amine]	0.1 to 0.5	
CCOc1ccc(-n2nc3c(N(C)Cc4ccccn4)nnc(C)c3c2C)cc1 [Example 46, 2-(4-ethoxyphenyl)-N,3,4-trimethyl-N-(pyridin-2-ylmethyl)-2H-pyrazolo[3,4-d]pyridazin-7-amine]	0.5 to 1	
Cc1nnc(N(C)Cc2ccccn2)c2nn(-c3ccc(Cl)cc3OC(F)(F)F)c(C)c12 [Example 42, 2-(4-chloro-2-(trifluoromethoxy)phenyl)-N,3,4-trimethyl-N-(pyridin-2-ylmethyl)-2H-pyrazolo[3,4-d]pyridazin-7-amine]	> 1	
CCOc1ccc(-n2nc3c(N(C)Cc4ccccc4)nnc(C)c3c2C)c(F)c1 [Example 6, N-benzyl-2-(4-ethoxy-2-fluorophenyl)-N,3,4-trimethyl-2H-pyrazolo[3,4-d]pyridazin-7-amine]	< 0.1	
CCOc1ccc(-n2nc3c(N(C)Cc4ccccc4CO)nnc(C)c3c2C)c(F)c1 [Example 41, (2-(((2-(4-ethoxy-2-fluorophenyl)-3,4-dimethyl-2H-pyrazolo[3,4-d]pyridazin-7-yl)(methyl)amino)methyl)phenyl)meth-anol]	0.1 to 0.5	
CCOc1ccc(-n2nc3c(N(CCO)Cc4ccccc4)nnc(C)c3c2C)c(F)c1 [Example 55, 2-(benzyl(2-(4-ethoxy-2-fluorophenyl)-3,4-dimethyl-2H-pyrazolo[3,4-d]pyridazin-7-yl)amino)ethanol]	0.5 to 1	
CCOc1ccc(-n2nc3c(N(C)Cc4cccc(O)c4)nnc(C)c3c2C)c(F)c1 [Example 17, 3-(((2-(4-ethoxy-2-fluorophenyl)-3,4-dimethyl-2H-pyrazolo[3,4-d]pyridazin-7-yl)(methyl)amino)methyl)phenol]	0.1 to 0.5	
CCOc1ccc(-n2nc3c(N(C)CC[C@@H](O)c4ccccc4)nnc(C)c3c2C)c(F)c1 [Example 50, (R)-3-((2-(4-ethoxy-2-fluorophenyl)-3,4-dimethyl-2H-pyrazolo[3,4-d]pyridazin-7-yl)(methyl)amino)-1-phenylpropan-1-ol]	0.1 to 0.5	
CCOc1ccc(-n2nc3c(N(C)Cc4cc(C)ccn4)nnc(C)c3c2C)c(F)c1 [Example 44, 2-(4-ethoxy-2-fluorophenyl)-N,3,4-trimethyl-N-((4-methylpyridin-2-yl)methyl)-2H-pyrazolo[3,4-d]pyridazin-7-amine]	0.5 to 1	
